Laboratory results published in ChEMBL document CHEMBL1155961, “Novel 4-aryl-pyrido[1,2-c]pyrimidines with dual SSRI and 5-HT1A activity: part 2” (Eur J Med Chem, 2009).
Active and inactive are the calls of the source. No cut-off for these calls is given here.

Key:
Mus musculus [1] = assay: Effect on hypothermia in Swiss albino mouse assessed as change in rectal body temperature at 10 mg/kg, ip after 120 mins by inducible hypothermia test; format: functional, organism-based; parameters: dose 10 mg/kg
Mus musculus [2] = assay: Effect on hypothermia in Swiss albino mouse assessed as change in rectal body temperature at 10 mg/kg, ip after 90 mins by inducible hypothermia test; format: functional, organism-based; parameters: dose 10 mg/kg
Mus musculus [3] = assay: Effect on hypothermia in Swiss albino mouse assessed as change in rectal body temperature at 10 mg/kg, ip after 60 mins by inducible hypothermia test; format: functional, organism-based; parameters: dose 10 mg/kg
Mus musculus [4] = assay: Effect on hypothermia in Swiss albino mouse assessed as change in rectal body temperature at 10 mg/kg, ip after 30 mins by inducible hypothermia test; format: functional, organism-based; parameters: dose 10 mg/kg
Mus musculus [5] = assay: Effect on hypothermia in Swiss albino mouse assessed as change in rectal body temperature at 5 mg/kg, ip after 120 mins by inducible hypothermia test; format: functional, organism-based; parameters: dose 5 mg/kg
Mus musculus [6] = assay: Effect on hypothermia in Swiss albino mouse assessed as change in rectal body temperature at 5 mg/kg, ip after 90 mins by inducible hypothermia test; format: functional, organism-based; parameters: dose 5 mg/kg
Mus musculus [7] = assay: Effect on hypothermia in Swiss albino mouse assessed as change in rectal body temperature at 5 mg/kg, ip after 60 mins by inducible hypothermia test; format: functional, organism-based; parameters: dose 5 mg/kg
Mus musculus [8] = assay: Effect on hypothermia in Swiss albino mouse assessed as change in rectal body temperature at 5 mg/kg, ip after 30 mins by inducible hypothermia test; format: functional, organism-based; parameters: dose 5 mg/kg
[9] = biological target: T1, 5-hydroxytryptamine receptor 1A (Rattus norvegicus, UniProt P19327); assay: Displacement of [3H]8-OH-DPAT from 5-HT1A receptor in rat hippocampus; format: tissue-based
T1 sequence (P19327 whole entry): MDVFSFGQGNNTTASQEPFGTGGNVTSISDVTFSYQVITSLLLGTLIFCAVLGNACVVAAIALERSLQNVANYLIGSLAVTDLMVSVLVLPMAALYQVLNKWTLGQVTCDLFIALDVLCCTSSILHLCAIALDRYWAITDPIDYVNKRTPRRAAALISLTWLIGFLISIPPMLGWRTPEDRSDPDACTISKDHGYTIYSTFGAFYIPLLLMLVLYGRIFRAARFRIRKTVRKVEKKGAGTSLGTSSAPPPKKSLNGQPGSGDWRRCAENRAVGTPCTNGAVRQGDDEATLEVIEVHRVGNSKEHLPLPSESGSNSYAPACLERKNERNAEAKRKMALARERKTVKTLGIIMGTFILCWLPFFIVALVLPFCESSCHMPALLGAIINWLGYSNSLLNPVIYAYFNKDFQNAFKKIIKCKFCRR

[10] = biological target: Sodium-dependent serotonin transporter (Rattus norvegicus, UniProt P31652); assay: Displacement of [3H]citalopram from SERT in rat cerebral cortex by liquid scintillation counting; format: tissue-based
Mus musculus [11] = assay: Effect on spontaneous locomotor activity in Swiss albino mouse assessed as number of light-beam crossings in actiometers pretreated for 30 mins at 10 mg/kg, ip measured during 6 mins post drug dose; format: functional; conditions: route intraperitoneal
Mus musculus [12] = assay: Effect on spontaneous locomotor activity in Swiss albino mouse assessed as number of light-beam crossings in actiometers pretreated for 30 mins at 10 mg/kg, ip measured during 30 mins post drug dose; format: functional; conditions: route intraperitoneal
Mus musculus [13] = assay: Antidepressant activity in Swiss albino mouse assessed as reduction of immobility time at 10 mg/kg, ip administered 30 mins before test measured 6 mins test session after 2 mins habituation period by forced swimming test; format: functional; parameters: scale not given: the % may be the effect or the level left
Mus musculus [14] = assay: Antidepressant activity in Swiss albino mouse assessed as reduction of immobility time at 5 mg/kg, ip administered 30 mins before test measured 6 mins test session after 2 mins habituation period by forced swimming test; format: functional, organism-based; parameters: dose 5 mg/kg
Mus musculus [15] = assay: Effect on hypothermia in Swiss albino mouse assessed as change in rectal body temperature at 10 mg/kg, ip dosed 15 mins after 0.1 mg/kg, sc WAY 100635 challenge measured after 60 mins by inducible hypothermia test; format: functional, organism-based
Mus musculus [16] = assay: Effect on hypothermia in Swiss albino mouse assessed as change in rectal body temperature at 10 mg/kg, ip dosed 15 mins after 0.1 mg/kg, sc WAY 100635 challenge measured after 30 mins by inducible hypothermia test; format: functional, organism-based
Mus musculus [17] = assay: Effect on hypothermia in Swiss albino mouse assessed as change in rectal body temperature at 20 mg/kg, ip after 120 mins by inducible hypothermia test; format: functional, organism-based; parameters: dose 20 mg/kg
Mus musculus [18] = assay: Effect on hypothermia in Swiss albino mouse assessed as change in rectal body temperature at 20 mg/kg, ip after 90 mins by inducible hypothermia test; format: functional, organism-based; parameters: dose 20 mg/kg
Mus musculus [19] = assay: Effect on hypothermia in Swiss albino mouse assessed as change in rectal body temperature at 20 mg/kg, ip after 30 mins by inducible hypothermia test; format: functional, organism-based; parameters: dose 20 mg/kg
Mus musculus [20] = assay: Effect on hypothermia in Swiss albino mouse assessed as change in rectal body temperature at 20 mg/kg, ip after 60 mins by inducible hypothermia test; format: functional, organism-based; parameters: dose 20 mg/kg
Mus musculus [21] = assay: Antidepressant activity in Swiss albino mouse assessed as reduction of immobility time at 20 mg/kg, ip administered 30 mins before test measured 6 mins test session after 2 mins habituation period by forced swimming test; format: functional
Mus musculus [22] = assay: Effect on hypothermia in Swiss albino mouse assessed as change in rectal body temperature at 20 mg/kg, ip dosed 15 mins after 0.1 mg/kg, sc WAY 100635 challenge measured after 60 mins by inducible hypothermia test; format: functional, organism-based
Mus musculus [23] = assay: Effect on hypothermia in Swiss albino mouse assessed as change in rectal body temperature at 20 mg/kg, ip dosed 15 mins after 0.1 mg/kg, sc WAY 100635 challenge measured after 30 mins by inducible hypothermia test; format: functional, organism-based
Mus musculus [24] = species on record: Mus musculus; conditions: Swiss albino, 2.5 mg/kg
Description: Effect on hypothermia in Swiss albino mouse assessed as change in rectal body temperature at 2.5 mg/kg, ip after 120 mins by inducible hypothermia test

Mus musculus [25] = species on record: Mus musculus; conditions: Swiss albino, 2.5 mg/kg; remark: listed apart in the source
Description: Effect on hypothermia in Swiss albino mouse assessed as change in rectal body temperature at 2.5 mg/kg, ip after 60 mins by inducible hypothermia test

Mus musculus [26] = species on record: Mus musculus; conditions: Swiss albino, 2.5 mg/kg; remark: listed apart in the source
Description: Effect on hypothermia in Swiss albino mouse assessed as change in rectal body temperature at 2.5 mg/kg, ip after 90 mins by inducible hypothermia test

Mus musculus [27] = species on record: Mus musculus; conditions: Swiss albino, 2.5 mg/kg; remark: listed apart in the source
Description: Effect on hypothermia in Swiss albino mouse assessed as change in rectal body temperature at 2.5 mg/kg, ip after 30 mins by inducible hypothermia test

Mus musculus [28] = species on record: Mus musculus; conditions: Swiss albino, 1.25 mg/kg
Description: Effect on hypothermia in Swiss albino mouse assessed as change in rectal body temperature at 1.25 mg/kg, ip after 120 mins by inducible hypothermia test

Mus musculus [29] = species on record: Mus musculus; conditions: Swiss albino, 1.25 mg/kg; remark: listed apart in the source
Description: Effect on hypothermia in Swiss albino mouse assessed as change in rectal body temperature at 1.25 mg/kg, ip after 90 mins by inducible hypothermia test

Mus musculus [30] = species on record: Mus musculus; conditions: Swiss albino, 1.25 mg/kg; remark: listed apart in the source
Description: Effect on hypothermia in Swiss albino mouse assessed as change in rectal body temperature at 1.25 mg/kg, ip after 60 mins by inducible hypothermia test

Mus musculus [31] = species on record: Mus musculus; conditions: Swiss albino, 1.25 mg/kg; remark: listed apart in the source
Description: Effect on hypothermia in Swiss albino mouse assessed as change in rectal body temperature at 1.25 mg/kg, ip after 30 mins by inducible hypothermia test

Mus musculus [32] = species on record: Mus musculus; conditions: Swiss albino, 5 mg/kg
Description: Effect on hypothermia in Swiss albino mouse assessed as change in rectal body temperature at 5 mg/kg, ip dosed 15 mins after 0.1 mg/kg, sc WAY 100635 challenge measured after 60 mins by inducible hypothermia test

Mus musculus [33] = species on record: Mus musculus; conditions: Swiss albino, 5 mg/kg; remark: listed apart in the source
Description: Effect on hypothermia in Swiss albino mouse assessed as change in rectal body temperature at 5 mg/kg, ip dosed 15 mins after 0.1 mg/kg, sc WAY 100635 challenge measured after 30 mins by inducible hypothermia test

Mus musculus [34] = assay: Effect on spontaneous locomotor activity in Swiss albino mouse assessed as number of light-beam crossings in actiometers pretreated for 30 mins at 20 mg/kg, ip measured during 30 mins post drug dose; format: functional; conditions: route intraperitoneal
Mus musculus [35] = assay: Effect on spontaneous locomotor activity in Swiss albino mouse assessed as number of light-beam crossings in actiometers pretreated for 30 mins at 20 mg/kg, ip measured during 6 mins post drug dose; format: functional; conditions: route intraperitoneal

Sequence of Sodium-dependent serotonin transporter (P31652 whole entry): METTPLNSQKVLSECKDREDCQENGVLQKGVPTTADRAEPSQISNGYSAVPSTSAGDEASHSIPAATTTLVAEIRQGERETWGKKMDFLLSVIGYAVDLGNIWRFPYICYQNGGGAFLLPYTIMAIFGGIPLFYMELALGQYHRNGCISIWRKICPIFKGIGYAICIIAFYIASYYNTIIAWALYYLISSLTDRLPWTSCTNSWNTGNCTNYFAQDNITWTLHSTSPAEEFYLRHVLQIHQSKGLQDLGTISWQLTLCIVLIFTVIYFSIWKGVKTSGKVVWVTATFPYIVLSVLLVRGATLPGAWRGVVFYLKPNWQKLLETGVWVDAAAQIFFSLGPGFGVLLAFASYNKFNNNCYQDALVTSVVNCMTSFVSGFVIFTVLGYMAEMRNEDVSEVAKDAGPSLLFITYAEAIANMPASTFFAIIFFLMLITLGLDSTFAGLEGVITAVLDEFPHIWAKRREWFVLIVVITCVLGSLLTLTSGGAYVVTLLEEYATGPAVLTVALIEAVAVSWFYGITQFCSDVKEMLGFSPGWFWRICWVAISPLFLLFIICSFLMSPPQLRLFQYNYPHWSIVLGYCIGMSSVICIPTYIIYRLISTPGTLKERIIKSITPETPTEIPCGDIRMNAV

| Compound | Ki [9] [nM] | Ki [10] [nM] | deltaT (Mus musculus [1]) [°C] | deltaT (Mus musculus [2]) [°C] | deltaT (Mus musculus [3]) [°C] | deltaT (Mus musculus [4]) [°C] | deltaT (Mus musculus [5]) [°C] | deltaT (Mus musculus [6]) [°C] | deltaT (Mus musculus [7]) [°C] | deltaT (Mus musculus [8]) [°C] | deltaT (Mus musculus [17]) [°C] | deltaT (Mus musculus [18]) [°C] | deltaT (Mus musculus [19]) [°C] | deltaT (Mus musculus [20]) [°C] | Activity (Mus musculus [13]) | deltaT (Mus musculus [22]) [°C] | deltaT (Mus musculus [23]) [°C] | also measured |
| --- | --- | --- | --- | --- | --- | --- | --- | --- | --- | --- | --- | --- | --- | --- | --- | --- | --- | --- |
| O=c1c(-c2ccccc2F)c2n(c(=O)n1CCCCN1CCC(c3c[nH]c4ccccc34)CC1)CCCC2 | 27.8 | 102 | -0.5 | -0.8 | -1 | -1.2 | -0.1 | -0.2 | -0.2 | -0.3 |  |  |  |  |  |  |  | Activity (Mus musculus [11]): 217; Activity (Mus musculus [12]): 333; Activity (Mus musculus [13]; route intraperitoneal): 27%; Activity (Mus musculus [14]): inactive; deltaT (Mus musculus [15]): -0.4 °C; deltaT (Mus musculus [16]): -0.6 °C |
| COc1ccc2[nH]cc(C3CCN(CCCCn4c(=O)c(-c5ccccc5F)c5n(c4=O)CCCC5)CC3)c2c1 | 45.6 | 184 | -0.4 | -0.6 | -0.8 | -0.7 | -0.3 | -0.4 | -0.6 | -0.7 | -0.7 | -0.8 | -1.2 | -1 | inactive | -0.4 | -0.5 | Activity (Mus musculus [21]; route intraperitoneal): 26%; Activity (Mus musculus [34]): 520; Activity (Mus musculus [35]): 272 |

The next compounds have a lower Ki [9] than those just listed; values first:

| Ki [9] [nM] | Ki [10] [nM] | Compound | deltaT (Mus musculus [1]) [°C] | deltaT (Mus musculus [2]) [°C] | deltaT (Mus musculus [3]) [°C] | deltaT (Mus musculus [4]) [°C] | deltaT (Mus musculus [5]) [°C] | deltaT (Mus musculus [6]) [°C] | deltaT (Mus musculus [7]) [°C] | deltaT (Mus musculus [8]) [°C] | deltaT (Mus musculus [17]) [°C] | deltaT (Mus musculus [18]) [°C] | deltaT (Mus musculus [19]) [°C] | deltaT (Mus musculus [20]) [°C] | Activity (Mus musculus [13]) | deltaT (Mus musculus [22]) [°C] | deltaT (Mus musculus [23]) [°C] | also measured |
| --- | --- | --- | --- | --- | --- | --- | --- | --- | --- | --- | --- | --- | --- | --- | --- | --- | --- | --- |
| 23 | 136 | COc1ccc2[nH]cc(C3CCN(CCCCn4c(=O)c(-c5ccc(C)cc5)c5n(c4=O)CCCC5)CC3)c2c1 | -0.1 | -0.2 | -0.4 | -0.6 | -0.1 | -0.1 | -0.2 | -0.3 | -0.7 | -0.8 | -1.3 | -1.3 | inactive | -0.4 | -0.4 | Activity (Mus musculus [21]): inactive |
| 13.9 | 76.1 | COc1ccc2[nH]cc(C3CCN(CCCCn4c(=O)c(-c5ccc(F)cc5)c5n(c4=O)CCCC5)CC3)c2c1 |  |  |  |  |  |  |  |  |  |  |  |  |  |  |  |  |
| 10.4 | 83.5 | COc1ccc(-c2c3n(c(=O)n(CCCCN4CCC(c5c[nH]c6ccc(OC)cc56)CC4)c2=O)CCCC3)cc1 |  |  |  |  | -0.1 | -0.3 | -0.5 | -1.1 |  |  |  |  |  |  |  | deltaT (Mus musculus [24]): -0.5 °C; deltaT (Mus musculus [25]): -0.6 °C; deltaT (Mus musculus [26]): -0.6 °C; deltaT (Mus musculus [27]): -0.8 °C; deltaT (Mus musculus [28]): -0.2 °C; deltaT (Mus musculus [29]): -0.4 °C; deltaT (Mus musculus [30]): -0.4 °C; deltaT (Mus musculus [31]): -0.3 °C; deltaT (Mus musculus [32]): -0.9 °C; deltaT (Mus musculus [33]): -1.2 °C |
